Laboratory results taken from US20080070939A1, “LOCAL […] COMPOSITIONS CONTAINING DEXTROROTATORY MORPHINAN DERIVATIVES OR PHARMACEUTICALLY ACCEPTABLE SALTS THEREOF” (CHI MEI FOUNDATION HOSPITAL, priority 2006, published 2008).
Values joined by “and” are separate entries in the source; they are usually repeats but may differ in a detail not shown here. Equal values may be shown once. Where a name gives a salt, the structure may show the parent alone. Read-outs that look alike come from different tables or passages of the source.

Legend:
Format in all cases: in vivo
Male Sprague-Dawley rats [1] = experiment: Spinal anesthetic effect (spinal blockade) after intrathecal injection in rats; design: AUC of time-% PE curve, spinal blockade of motor function / AUC of time-% PE curve, spinal blockade of proprioception / AUC of time-% PE curve, spinal blockade of nociceptive reaction: unit not given beside the values; conditions: for AUC of time-% PE curve, spinal blockade of motor function / AUC of time-% PE curve, spinal blockade of nociceptive reaction / AUC of time-% PE curve, spinal blockade of proprioception: 2 ED50 when administered independently, ED50 of each drug when co-administered, mean ± SEM; for Motor function ED50 (95% CI): spinal blockade of motor function; for Motor function ED50 (95% CI) / Nociceptive reaction ED50 (95% CI) / Proprioception ED50 (95% CI): intrathecal injection; for Nociceptive reaction ED50 (95% CI): spinal blockade of nociceptive reaction; for Proprioception ED50 (95% CI): spinal blockade of proprioception; for Mean value ED25 / Mean value ED50 / Mean value ED75: spinal blockade, mean of motor function, proprioception and nociceptive reaction
Experimental: (§1) Male Sprague-Dawley rats (weighing about 300 to 350 g); for each dose of each drug, n=6.
In brief, for preparation, the hairs on the back of each rat were shaved, and the shaved back was sterilized with iodine.
After three minutes, 50 μL of each of the tested drugs was injected via a 27-gauge needle attached to a 100-μL syringe (Hamilton, Reno, Nev.) into the intrathecal space between the fourth and fifth lumbar vertebrae. The development of spinal blockade was observed from the paralysis of the hind limbs of the rats.
The magnitude of nerve block (including blocking of motor function, proprioception, and nociceptive reaction) was expressed as the percentage of possible effect (hereinafter referred to as % PE), and the maximal value of % PE was expressed as the percentage of maximal possible effect (hereinafter referred to as % MPE).
Motor function was evaluated by measuring the extensor postural thrust of the right hind limbs of the rats using a digital platform balance (Mettler Toledo, Switzerland, model PB1502-S). To test the extensor postural thrust, the rat was held upright with the hind limb extended, so that the body weight of the rat was supported by the distal metatarsus and toes. The extensor postural thrust could be measured as the force of the right hind limb of the rat thrusting the platform balance.
A reduction in the force, resulting in extensor muscle tone, was considered as a motor deficit. A force less than 20 g (i.e., a weight of the “flaccid limb”) was considered absence of an extensor postural thrust or 100% motor block or 100% MPE.
Proprioception was evaluated based on resting posture and postural reactions (including tactile placing and hopping). First, the front half of the rat body and one of the hind limbs were lifted off the ground at the same time so that the rat was standing on one hind limb. Then, the rat was moved laterally, which normally evoked a prompt hopping response of the weight-bearing hind limb of the rat in the direction of movement so as to avoid falling. A predominantly proprioceptive block caused a delayed hopping followed by greater lateral hops. […] Functional deficits were classified into four grades: 3 (normal or 0% MPE), 2 (slightly impaired), 1 (severely impaired), and 0 (completely impaired or 100% MPE).
Nociceptive reaction was evaluated by the withdrawal reflex or vocalization elicited by the pinch of a skin fold over the back at 1 cm near the proximal part of the tail, the lateral metatarsus of the bilateral hind limbs, and the dorsal part of the mid-tail. At each testing time, only one pinch was given to each of the abovementioned four testing sites, and the time interval between stimulations at different sites was around 2 seconds. Nociceptive reactions were classified into five grades: 4 (normal or 0% MPE), 3 (25% MPE), 2 (50% MPE), 1 (75% MPE), and 0 (absent or 100% MPE).
The potency of each drug on spinal blockades was compared using ED50.
Duration was defined as the interval from injection of the tested drugs to complete recovery. The ED25, ED50 and ED75 obtained according to the SAS NLIN analysis in the preceding section “C. Potency evaluation” were used in this experiment.
Regarding the method of evaluating the effect of co-administration, dextromethorphan hydrobromide monohydrate was used as an example.
After the tests, the time of measurement of each drug and its corresponding % PE were plotted to obtain the time-% PE curves of each drug. The area under the curve (AUC) of time-% PE was calculated using the trapezoidal rule, and was used to evaluate the effect of the co-administration of the drugs.
Statistical software, SPSS for Windows® (version 10.0.7) was used. Data were represented as mean±SEM.

sciatic nerve = experiment: Sciatic nerve blockade after injection at the sciatic nerve notch in rats; design: AUC of time-% PE curve, sciatic nerve blockade of motor function / AUC of time-% PE curve, sciatic nerve blockade of proprioception / AUC of time-% PE curve, sciatic nerve blockade of nociceptive reaction: unit not given beside the values; conditions: for ED50: Rattus norvegicus
Experimental: as §1
In brief, the rats were slightly anesthetized by inhalation of a low concentration of sevoflurane. Then, 200 μL of tested drugs were injected at the sciatic nerve notch at the left hind limb of the rat using a 27-gauge needle connected to a tuberculin syringe (Becton Dickinson, USA, model BND309623-BX). Thereafter, development of sciatic nerve blockade was observed from the paralysis of the left hind limb of the rat. The right hind limb served as a control during the subsequent functional assay
For proprioception, the front half of the rat body and the right hind limb were off the ground at the same time so that the rat was standing on the left hind limb during the measurement.
The differences resided in that: The sciatic nerve notch injections of ED25, ED50 and ED75 were conducted based on the method described in the preceding section “A. Drug injection” of this example. Evaluations of motor function, proprioception and nociceptive reaction were conducted based on the method described in section “B. Neurobehavioral evaluations” of this example.
The differences resided in that: Before the statistical analysis, Shapiro-Wilk test was used to evaluate whether the data were, theoretically, normally distributed.

Male Sprague-Dawley rats [2] = experiment: Infiltrative cutaneous anesthesia (inhibition of cutaneous trunci muscle reflex, CTMR) after subcutaneous injection in rats
Experimental: Male Sprague-Dawley rats (weighing about 200 to 250 g); for each dose of each drug, n=8.
In brief, hairs on the dorsal surface (about 10×10 cm^2) of the thoracolumbar region of the rat were shaved, and the shaved surface was sterilized with iodine for preparation. To reduce the number of animals used, the back of the rat was further divided into left and right parts. One drug was injected first at the right part. After a washout period of one week, another drug was injected at the left part.
0.6 mL of drug was injected subcutaneously under the dorsal surface of the thoracolumbar region of the rat using a 30-gauge needle attached to a syringe (Becton Drive, Franklin Lakes, USA). The subcutaneous injection would result in a circular elevation (i.e., a wheal) of the skin, about 2 cm in diameter. The elevation was marked with ink within 1 minute after injection.
CTMR refers to the reflex movement of the skin of the back caused by twitching of the lateral thoracispinal muscle in response to local dorsal cutaneous stimulation. Essentially, a von Frey filament (No.15; Somedic Sales AB, Sweden) to which a cut end of an 18-gauge needle was affixed was used to produce a standard nociceptive stimulus (strength: 19 g). Six pinpricks (at a frequency of 0.5-1 Hz) were applied to a single marked wheal during each test. […] For example, absence of any response to all of the 6 pinpricks was defined as a complete nociceptive block (i.e., 100% MPE).
The difference resided in that subcutaneous injections of ED25, ED50 and ED75 of the drugs were performed based on the method described in the section “A. Drug injection” of this example, and evaluation of the infiltrative cutaneous anesthetic effect was performed based on the method described in the section “B. Neurobehavioral evaluation” of this example.

[3] = read-out: Motor function ED50 (95% CI)
[4] = read-out: Nociceptive reaction ED50 (95% CI)
[5] = read-out: Proprioception ED50 (95% CI)
[6] = rats, 2ED50 when administered independently, ED50 of each drug when co-administered, mean ± SEM
[7] = intrathecal dose of ED75, injection to complete recovery, rats
[8] = intrathecal dose of ED75, rats, mean±SEM
[9] = intrathecal, rats, hydrochloride
[10] = infiltrative cutaneous anesthesia, rats, 2ED50 when administered independently, ED50 for co-administration, mean ± SEM, hydrochloride
[11] = infiltrative cutaneous anesthesia, subcutaneous injection, rats
[12] = subcutaneous dose of ED75, rats, mean±SEM
[13] = dosage of 6.7 mg/kg, sciatic nerve notch injection, rats

COc1ccc2c(c1)[C@@]13CCCC[C@H]1[C@@H](C2)NCC3.Cl [3-methoxymorphinan hydrochloride]
% MPE of spinal blockades of motor function, proprioception and nociceptive reaction (range over the three functions) (Male Sprague-Dawley rats [1]; intrathecal dose of ED75, rats): 66-79 % MPE
duration of spinal blockades of motor function, proprioception and nociceptive reaction (range over the three functions) (Male Sprague-Dawley rats [1]; intrathecal dose of ED75, rats): 28 to 35 min
effect of co-administration with bupivacaine hydrochloride on spinal blockade (Male Sprague-Dawley rats [1]; intrathecal, rats, ED50 of each drug): additive effect
AUC of time-% PE curve, spinal blockade of motor function (Male Sprague-Dawley rats [1]; intrathecal, rats): 1265 ± 232
AUC of time-% PE curve, spinal blockade of nociceptive reaction (Male Sprague-Dawley rats [1]; intrathecal, rats): 2081 ± 227
AUC of time-% PE curve, spinal blockade of proprioception (Male Sprague-Dawley rats [1]; intrathecal, rats): 1917 ± 254
Motor function ED50 (95% CI) (Male Sprague-Dawley rats [1]; rats): 0.45 (0.43–0.47) mg
Nociceptive reaction ED50 (95% CI) (Male Sprague-Dawley rats [1]; rats): 0.39 (0.37–0.42) mg
Proprioception ED50 (95% CI) (Male Sprague-Dawley rats [1]; rats): 0.40 (0.38–0.43) mg
Mean value ED25 (Male Sprague-Dawley rats [1]; intrathecal, rats): 0.33 mg
Mean value ED50 (Male Sprague-Dawley rats [1]; intrathecal, rats): 0.41 mg
Mean value ED75 (Male Sprague-Dawley rats [1]; intrathecal, rats): 0.53 mg
sciatic nerve blocking effect on nociceptive reaction compared with motor function (sciatic nerve; ED50 basis, p<0.01, rats): more potent sciatic nerve blocking effect on nociceptive reaction than on motor function
ED50 (sciatic nerve; read-out: Mean ED50): 6.68 mg/kg
ED50 (sciatic nerve; [3]): 7.4 mg/kg
ED50 (sciatic nerve; [4]): 5.89 mg/kg
ED50 (sciatic nerve; [5]): 6.76 mg/kg
effect of co-administration with lidocaine hydrochloride on sciatic nerve blockades (sciatic nerve; rats, ED50 of each drug): additive effect
AUC of time-% PE curve, sciatic nerve blockade of motor function (sciatic nerve; [6]): 4559 ± 584
AUC of time-% PE curve, sciatic nerve blockade of nociceptive reaction (sciatic nerve; [6]): 8026 ± 1437
AUC of time-% PE curve, sciatic nerve blockade of proprioception (sciatic nerve; [6]): 5191 ± 652
duration of sciatic nerve blockade compared with lidocaine hydrochloride (sciatic nerve; same effective doses (ED25, ED50 or ED75), rats): longer reaction duration

CCCCN1CCCCC1C(=O)Nc1c(C)cccc1C (centres unmarked) [Bupivacaine hydrochloride, reference compound]
duration of spinal blockade of motor function (Male Sprague-Dawley rats [1]; [7]): about 25±3 minutes
duration of spinal blockade of nociceptive reaction (Male Sprague-Dawley rats [1]; [7]): ~63 ± 7 min
duration of spinal blockade of proprioception (Male Sprague-Dawley rats [1]; [7]): ~32 ± 4 min
% MPE of spinal blockade of motor function (Male Sprague-Dawley rats [1]; [8]): about 71±3 % MPE
% MPE of spinal blockade of nociceptive reaction (Male Sprague-Dawley rats [1]; [8]): ~81±3 % MPE
% MPE of spinal blockade of proprioception (Male Sprague-Dawley rats [1]; [8]): ~72±4 % MPE
AUC of time-% PE curve, spinal blockade of motor function (Male Sprague-Dawley rats [1]; [9]): 1292 ± 113 and 1238 ± 147 and 1383 ± 131
AUC of time-% PE curve, spinal blockade of nociceptive reaction (Male Sprague-Dawley rats [1]; [9]): 4378 ± 184 and 4512 ± 229 and 4410 ± 225
AUC of time-% PE curve, spinal blockade of proprioception (Male Sprague-Dawley rats [1]; [9]): 2597 ± 245 and 2638 ± 308 and 2774 ± 299
Motor function ED50 (95% CI) (Male Sprague-Dawley rats [1]; rats): 0.12 (0.11–0.12) mg
Nociceptive reaction ED50 (95% CI) (Male Sprague-Dawley rats [1]; rats): 0.09 (0.08–0.09) mg
Proprioception ED50 (95% CI) (Male Sprague-Dawley rats [1]; rats): 0.10 (0.10–0.11) mg
Mean value ED25 (Male Sprague-Dawley rats [1]; intrathecal, rats): 0.08 mg
Mean value ED50 (Male Sprague-Dawley rats [1]; intrathecal, rats): 0.11 mg
Mean value ED75 (Male Sprague-Dawley rats [1]; intrathecal, rats): 0.14 mg

CCN(CC)CC(=O)Nc1c(C)cccc1C [Lidocaine hydrochloride, reference compound]
ED50 (Male Sprague-Dawley rats [2]; Rattus norvegicus, sc, infiltrative cutaneous anesthesia, subcutaneous injection, rats, read-out: ED50 (95% CI)): 7 mg/kg
% MPE (Male Sprague-Dawley rats [2]; [10]): 90 ± 5 % MPE and 88 ± 6 % MPE
Duration (Male Sprague-Dawley rats [2]; [10]): 51 ± 3 min and 52 ± 4 min
ED25 (Male Sprague-Dawley rats [2]; [11]): 5.31 mg/kg
ED75 (Male Sprague-Dawley rats [2]; [11]): 9.24 mg/kg
% MPE of cutaneous nociceptive block (Male Sprague-Dawley rats [2]; [12]): 72±7 % MPE
duration of cutaneous nociceptive block (Male Sprague-Dawley rats [2]; [12]): ~33 ± 4 min
ED50 (sciatic nerve; [3]): 2.67 mg/kg
ED50 (sciatic nerve; [4]): 2.35 mg/kg
ED50 (sciatic nerve; [5]): 2.57 mg/kg
% MPE of sciatic nerve blockade of motor function (sciatic nerve; [13]): 100 % MPE
% MPE of sciatic nerve blockade of nociceptive reaction (sciatic nerve; [13]): 100 % MPE
% MPE of sciatic nerve blockade of proprioception (sciatic nerve; [13]): 100 % MPE
duration of sciatic nerve blockade of motor function (sciatic nerve; [13]): about 63±6 minutes
duration of sciatic nerve blockade of nociceptive reaction (sciatic nerve; [13]): ~83 ± 6 min
duration of sciatic nerve blockade of proprioception (sciatic nerve; [13]): ~73 ± 4 min
